In patent US5516756A, “Aza cyclohexapeptide compounds” (Merck & Co., Inc., priority 1994, dated 1996):
In brackets after ≈: the same amount, converted by molar mass.

How the values were obtained:
[1] = tested on: Candida albicans (MY 1055); type: cell-based; details: MY 1055, 24 h
Method: (§1) The compounds of the present invention are active against many fungi and particularly against Candida species. The antifungal properties may be illustrated with the minimum fungicidal concentration (MFC) determination against certain Candida organisms in a microbroth dilution assay carded out in a Yeast Nitrogen Base (DIFCO) medium with 1% dextrose (YNBD).
(§2) In a representative assay, compounds were solubilized in 100% dimethyl sulfoxide (DMSO) at an initial concentration of 5 mg/ml. Once dissolved, the drug stock was brought to a concentration of 512 μg/ml by dilution in water such that the final DMSO concentration was about 10 percent. The solution was then dispensed via a multichannel pipetter into the first column of a 96-well plate (each well containing 0.075 ml of YNBD), resulting in a drug concentration of 256 μg/ml. Compounds in the first column were diluted 2-fold across the rows yielding final drug concentration ranging from 256 μg/ml to 0.12 μg/ml.
(§3) Four-hour broth cultures of organisms to be tested were adjusted using a spectrophotometer at 600 nm to equal a 0.5 McFarland Standard. This suspension was diluted 1:100 in YNBD to yield a cell concentration of 1-5×10^4 colony forming units (CFU)/ml. Aliquots of the suspension (0.075 ml) were inoculated into each well of the microtiter plate resulting in a final cell inoculum of 5-25×10^3 CFU/ml and final drug concentrations ranging from 128 μg/ml to 0.06 μg/ml. Each assay included one row for drug-free control wells and one row for cell-free control wells.
(§4) After 24 hours of incubation, the microtiter plates were shaken gently on a shaker to resuspend the cells. The MIC-2000 inoculator was used to transfer a 1.5 microliter sample from each well of the 96-well microtiter plate to a single reservoir inoculum plate containing Sabouraud dextrose agar (SDA). The inoculated SDA plates were incubated for 24 hours at 35° C. and then read for minimum fungicidal concentration (MFC). MFC is defined as the lowest concentration of drug showing no growth or less than 4 colonies per spot. […]

[2] = tested on: Candida parapsilosis (MY 1010); type: cell-based; details: MY 1010, 24 h
Method: as §1, §2, §3, §4

[3] = tested on: Candida tropicalis (MY 1012); type: cell-based; details: MY 1012, 24 h
Method: as §1, §2, §3, §4

Candida albicans MY 1055 = assay: In vivo effectiveness: kidney CFU in mice infected I.V. with Candida albicans; details: 0.07 mg/kg i.p. twice daily for four consecutive days; female DBA/2 mice; CFU per gram of kidneys after seven days
Method: The in vivo effectiveness of the compounds against fungi may be seen in the following assay.
Growth from an overnight SDA culture of Candida albicans MY 1055 was suspended in sterile saline and the cell concentration determined by hemacytometer count and the cell suspension adjusted to 3.75×10^5 cells/ml. Then 0.2 milliliter of this suspension was administered I.V. in the tail vein of mice so that the final inoculum is 7.5×10^4 cells/mouse.
The assay was then carried out by administering aqueous solutions of Compound I at various concentrations intraperitoneally (I.P.), twice daily (b.i.d.) for four consecutive days to 18 to 20 gram female DB A/2 mice, which previously had been infected with Candida albicans (MY 1055) in the manner described above. Distilled water was administered I.P. to C. albicans challenged mice as controls. After seven days, the mice were sacrificed by carbon dioxide gas, paired kidneys were removed aseptically and placed in sterile polyethylene bags containing 5 milliliters of sterile saline. The kidneys were homogenized in the bags, serially diluted in sterile saline and aliquots spread on the surface of SDA plates. The plates were incubated at 35° C. for 48 hours and yeast colonies enumerated for determination of colony forming units (CFU) per gram of kidneys. […]

## CCC(C)CC(C)CCCCCCCCC(=O)N[C@H]1C[C@@H](O)[C@@H](NC(=O)[C@@H](N)CN)NC(=O)[C@@H]2[C@@H](O)CCN2C(=O)[C@H]([C@H](O)CCN)NC(=O)[C@H]([C@H](O)[C@@H](O)c2ccc(O)cc2)NC(=O)[C@@H]2C[C@@H](O)CN2C(=O)[C@H]([C@@H](C)O)NC1=O (stereo partly shown) [Compound I]
[1]
  minimum fungicidal concentration (MFC): 1 µg/mL (≈ 0.88 µM)
[2]
  minimum fungicidal concentration (MFC): 0.5 µg/mL (≈ 0.44 µM)
[3]
  minimum fungicidal concentration (MFC): 1 µg/mL (≈ 0.88 µM)
Candida albicans MY 1055
  reduction of recoverable Candida CFUs: greater than 99%
